Values joined by “and” are separate entries in the source; they are usually repeats but may differ in a detail not shown here. Equal values may be shown once. Read-outs that look alike come from different tables or passages of the source.
Columns and labels:
[1] = tested on: locally advanced or metastatic NSCLC harboring c-MET overexpression or MET exon 14 skipping mutation; type: in vivo, human
Protocol: Patients enrolled in this study were divided into two parts. […] Patients with pre-existing c-MET overexpression at hospital diagnosis were also included in Part A. In Part B, patients in the 400 mg bis in die (BID) dose cohort, blood and tissue samples were collected to perform NGS to determine the MET exon 14 skipping mutation. Patients harboring pre-existing MET exon 14 skipping mutation at hospital diagnosis were also enrolled into Part B. […] Statistical analyses were performed using SAS version 9.4 (SAS Institute, Cary, NC, USA). Age was expressed as median (range), and categorical variables were expressed as frequency (percentage). The 95% CIs of ORR and DCR were calculated using Clopper-Pearson method. […] No imputation method was performed for missing data.

[2] = Plasma PK from sparse data, population PK analysis without PK modeling; type: in vivo, human; conditions: 28 days
Protocol: A total of 21 patients in Part A were included in PKAS. […] The mean T1/2 of M1 ranged from 19.8 h to 21.8 h. For M2-2, its mean T1/2 was not able to estimate in the 450 mg QD and 600 mg QD cohorts, and 21.3 h in the 300 mg QD cohort. The MP ratio calculated based on AUCtau ranged from 6.0 to 9.1 for M1, and ranged from 4.1 to 5.7 for M2-2.

Compound: O=C(Nc1ccc(Oc2ccnc3c2CCN3)c(F)c1)c1c[nH]cc(-c2ccc(F)cc2)c1=O
- BOR CR ([1]; 300 mg QD (n=12)): 0 n (%)
- BOR NE (patients not evaluable) ([1]; 300 mg QD (n=12)): 0 n (%)
- BOR PD ([1]; 300 mg QD (n=12)): 7 (58.3) n (%)
- BOR PR ([1]; 300 mg QD (n=12)): 0 n (%)
- BOR SD ([1]; 300 mg QD (n=12)): 5 (41.7) n (%)
- DCR (95% CI) ([1]; 300 mg QD (n=12)): 41.7% and 41.7 (15.2, 72.3) %
- ORR (95% CI) ([1]; 300 mg QD (n=12)): 0 (0, 26.5) %
- PFS, median (95% CI) ([1]; 300 mg QD (n=12)): 1.9 months and 1.9 (1.9, 5.6) months
- BOR CR ([1]; 400 mg BID (n=4)): 0 n (%)
- BOR PD ([1]; 400 mg BID (n=4)): 0 n (%)
- BOR PR ([1]; 400 mg BID (n=4)): 0 n (%)
- BOR CR ([1]; 450 mg QD (n=12)): 0 n (%)
- BOR PD ([1]; 450 mg QD (n=12)): 6 (50.0) n (%)
- BOR PR ([1]; 450 mg QD (n=12)): 0 n (%)
- BOR SD ([1]; 450 mg QD (n=12)): 4 (33.3) n (%)
- DCR (95% CI) ([1]; 450 mg QD (n=12)): 33.3% and 33.3 (9.9, 65.1) %
- ORR (95% CI) ([1]; 450 mg QD (n=12)): 0 (0, 26.5) %
- OS, median (95% CI) ([1]; 450 mg QD (n=12)): 9.3 months and 9.3 (2.6, NE) months
- PFS, median (95% CI) ([1]; 450 mg QD (n=12)): 1.9 months and 1.9 (1.1, 3.8) months
- BOR CR ([1]; 600 mg QD (n=10)): 0 n (%)
- BOR PD ([1]; 600 mg QD (n=10)): 2 (20.0) n (%)
- BOR SD ([1]; 600 mg QD (n=10)): 3 (30.0) n (%)
- DCR (95% CI) ([1]; 600 mg QD (n=10)): 40.0% and 40.0 (12.2, 73.8) %
- ORR (95% CI) ([1]; 600 mg QD (n=10)): 10.0 (0.3, 44.5) %
- PFS, median (95% CI) ([1]; 600 mg QD (n=10)): 1.8 months and 1.8 (1.2, 3.9) months
- ORR ([1]; Part A (n=34), c-MET overexpression): 2.9%
- DCR (95% CI) ([1]; Part B, 400 mg BID (n=4)): 75.0% and 75.0 (19.4, 99.4) %
- ORR (95% CI) ([1]; Part B, 400 mg BID (n=4)): 0% and 0 (0, 60.2) %
- PFS, median (95% CI) ([1]; Part B, 400 mg BID (n=4)): 3.4 months and 3.4 (3.2, 3.7) months
- BOR CR ([1]; Total (n=38)): 0 n (%)
- BOR PD ([1]; Total (n=38)): 15 (39.5) n (%)
- BOR SD ([1]; Total (n=38)): 15 (39.5%) n (%) and 15 (39.5) n (%)
- DCR (95% CI) ([1]; Total (n=38)): 42.1% and 42.1 (26.3, 59.2) %
- ORR (95% CI) ([1]; Total (n=38)): 2.6% and 2.6 (0.1, 13.8) %
- OS, median (95% CI) ([1]; Total (n=38)): 10.3 months and 10.3 (7.3, NE) months
- PFS, median (95% CI) ([1]; Total (n=38)): 1.9 months and 1.9 (1.9, 3.7) months
- AUCtau, mean (SD) ([2]; 300 mg QD (n=4)): 7420.0 (3120.0) h×ng/mL
- CLss/F, mean (SD) ([2]; 300 mg QD (n=4)): 46.2 (18.7) L/h
- Cmax,ss, mean (SD) ([2]; 300 mg QD (n=4)): 601.0 (189.0) ng/mL
- Cmin,ss, mean (SD) ([2]; 300 mg QD (n=4)): 89.1 (56.3) ng/mL
- Ctrough, mean (SD) ([2]; 300 mg QD (n=4)): 94.1 (79.0) ng/mL
- T1/2, mean (SD) ([2]; 300 mg QD (n=4)): 9.1 (1.7) h
- Tmax,ss, mean (SD) ([2]; 300 mg QD (n=4)): 4.0 (2.0) h
- Vz,ss/F, mean (SD) ([2]; 300 mg QD (n=4)): 685.0 (196.0) L
- AUCtau, mean (SD) ([2]; 450 mg QD (n=5)): 6350.0 (2710.0) h×ng/mL
- CLss/F, mean (SD) ([2]; 450 mg QD (n=5)): 77.9 (33.2) L/h
- Cmax,ss, mean (SD) ([2]; 450 mg QD (n=5)): 470.0 (83.3) ng/mL
- Cmin,ss, mean (SD) ([2]; 450 mg QD (n=5)): 151.0 (77.5) ng/mL
- Ctrough, mean (SD) ([2]; 450 mg QD (n=5)): 167.0 (100.5) ng/mL
- T1/2, mean (SD) ([2]; 450 mg QD (n=5)): 10.3 (NE) h
- Tmax,ss, mean (SD) ([2]; 450 mg QD (n=5)): 5.1 (2.0) h
- Vz,ss/F, mean (SD) ([2]; 450 mg QD (n=5)): 1500.0 (NE) L
- AUCtau, mean (SD) ([2]; 600 mg QD (n=2)): 6980.0 (NE) h×ng/mL
- CLss/F, mean (SD) ([2]; 600 mg QD (n=2)): 86.0 (NE) L/h
- Cmax,ss, mean (SD) ([2]; 600 mg QD (n=2)): 758.0 (NE) ng/mL
- Cmin,ss, mean (SD) ([2]; 600 mg QD (n=2)): 80.3 (NE) ng/mL
- Ctrough, mean (SD) ([2]; 600 mg QD (n=2)): 201.1 (166.4) ng/mL
- T1/2, mean (SD) ([2]; 600 mg QD (n=2)): 9.6 (NE) h
- Tmax,ss, mean (SD) ([2]; 600 mg QD (n=2)): 3.0 (NE) h
- Vz,ss/F, mean (SD) ([2]; 600 mg QD (n=2)): 1180.0 (NE) L
